The source of these data is paper PMC3890692 (ACS medicinal chemistry letters, 2013).

Data set [1] in a line: Mouse pharmacokinetic study, intraperitoneal.
The subject of data set [2] is B. anthracis (Sterne). The settings on record: mice infected with a lethal dose of B. anthracis (Sterne); cited from earlier work.
The mark [3] stands for this setting: following a single dose, i.p., mice.

With `O=C([O-])[C@H](Cc1ccccc1)N1C(=O)/C(=C\c2ccc(-c3ccc(Cl)c(Cl)c3)o2)NC1=S.[Na+]` [Compound 12-ES-Na], the Cl in data set [1] (Group 1, 25 mg/kg i.p., CD-1 female mice) was 2.33 mL/min/kg; in data set [1] (Group 2, 50 mg/kg i.p., CD-1 female mice) it was 1.67 mL/min/kg; in data set [1] (Group 3, 100 mg/kg i.p., CD-1 female mice), 0.917 mL/min/kg. In data set [1] (dosage below 100 mg/kg, i.p., CD-1 female mice), the “mortality and clinical observations” value was “no mortality and no significant clinical observations”. For the same compound, the “AUC relative to the MIC” value in data set [1] (setting [3]) is “more than 200 fold”. Also, in data set [1] (setting [3]), the “time of concentration above MIC” value is recorded as “more than 10 hours”. Further, in data set [1] (rodent PK profile, i.p., mice), the clearance was ~ 100 mL/h/kg. Also, the “prevention of mortality / block of infection” value in data set [2] is “can effectively block Bacillus anthracis infection in mice”.
